AC50 data for 64 molecules are collected here from PubChem BioAssay AID463204 (Broad Institute, 2010).

Calls of active or inactive are those of the source.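 How the source made its calls: active means AC50 no more than ten times the top concentration tested, that is within one log above it; inconclusive means flat curve fit with activity between 30% and 70%, or invalid poor fit; inactive means AC50 beyond ten times the top tested dose.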

The subject of this assay is S. cerevisiae Mot1-301 ts growth rescue, BacTiter-Glo ATP luminescence. Briefly: growth rescue of Mot1-301 ts yeast, confirmation, SUMOylation pathway inhibitor project, whole organism, S. cerevisiae, Mot1-301 ts mutant, luminescence, dose retest (AID 463204).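 Further: growth at restrictive 38.5 degrees C of Mot1-301 OY566 strain; actives raise luminescence by restoring growth of the ts mutant at high temperature.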
Turning to `COCCNC(=O)C(=O)NCC1OCCN1C(=O)c1ccc(Cl)cc1` (centres undefined), the AC50 is > 42 µM (inactive). The figure for `COc1ccc(C(=O)CSc2nnc(CNC(=O)c3ccccc3)n2C)cc1` is > 42 µM (inactive); for `Cc1cc(C)n(C(=O)c2ccccc2[N+](=O)[O-])n1` it is > 42 µM (inactive). Then `CCS(=O)c1ccccc1C(=O)O` (centres undefined), with > 42 µM (inactive); and `Cc1cccc(NC(=S)NCc2ccco2)c1C`, with > 42 µM (inactive).

For the molecule `Cc1nnc(C)n1/N=C/c1cc2ccccc2nc1Cl`, the AC50 was > 42 µM (inactive). Then `Cc1nc(NC(=O)CSc2nc(N)cc(N)n2)sc1C`, with > 42 µM (inactive); and `COc1ccc(/C=N/NC(=O)c2c(C)nc3ccccn23)cc1[N+](=O)[O-]`, with > 42 µM (inactive); and `CC(C(=O)Nc1ccccc1-c1ccccc1)N1CCN(Cc2ccccc2)CC1` (centres undefined), with > 42 µM (inactive).

For the molecule `O=C(/C=C/N1CCOCC1)c1coc2ccccc12`, the AC50 is > 42 µM (inactive). The figure for `O=C(Nc1ccc(Cl)cc1)N1CCC(c2nc(-c3ccc(F)cc3)no2)CC1` is > 42 µM (inactive); for `O=C1N=C(N2CCN(c3ccccc3)CC2)SC1Cc1ccccc1` (centres undefined) it is > 42 µM (inactive).

Take `c1ccc2cc(C3CCCCC3)ncc2c1`: the AC50 is 14 µM. Then `CC1CCCN(C(=O)Cc2ccc(F)cc2)C1` (centres undefined), with > 42 µM (inactive); and `COc1ccc2c(c1)[C@H]1[C@H](CO2)[C@H](c2ccccc2)[C@]2(C)C(=O)Nc3ccc(Br)cc3C(=O)N12`, with 1.17 µM. The figure for `COc1ccccc1CNC(=O)C1CCC(=O)N1C(C)C` (centres undefined) is > 42 µM (inactive).

As to `O=C(NCC(c1cccs1)N1CCOCC1)c1ccccc1NS(=O)(=O)c1cc([N+](=O)[O-])ccc1Cl` (centres undefined), the AC50 is > 42 µM (inactive). With `COc1ccc(N=Cc2c(O)n(C)c(=O)[nH]c2=O)cc1`, the AC50 is > 42 µM (inactive). The figure for `CCCCOC(=O)/C(=C/C=C/c1ccccc1)NC(=O)c1ccccc1` is > 42 µM (inactive); for `COCCNCc1ccccc1` it is > 42 µM (inactive). The figure for `O=C(Nc1ccc2ccccc2c1)N1CCCN(CCOc2ccccc2)CC1` is > 42 µM (inactive).

`COCC(C)n1c(-c2ccc3c(c2)NC(=O)CO3)csc1=Nc1ccc(OC(F)F)cc1` (centres undefined): the AC50 is 25.2 µM. With `CN(C)c1ccc(NS(=O)(=O)c2cccc(Cl)c2)cc1`, the AC50 is > 42 µM (inactive). The figure for `CC(C)C(OC(=O)CN1C(=O)COc2ccccc21)C(=O)NC1CCCC1` (centres undefined) is > 42 µM (inactive); for `CC(=O)c1ccc(C(=O)N2CCCC(N3CCN(c4ccc(F)cc4)CC3)C2)s1` (centres undefined) it is > 42 µM (inactive).

With `CN(CP(=O)(O)C(O)c1ccccc1)S(C)(=O)=O` (centres undefined), the AC50 is > 42 µM (inactive). The figure for `CCCCCCC(C)n1[nH]c(=O)c2c(C)cc(=O)[nH]c21` (centres undefined) is > 42 µM (inactive); for `CCN1CCCC1CN(Cc1cc2ccc(C)cc2[nH]c1=O)C(=S)Nc1ccccc1C(=O)OC` (centres undefined) it is > 42 µM (inactive).

`Cc1cc(C)n(CCOC(=O)C2C(C=C(Cl)Cl)C2(C)C)n1` (centres undefined): the AC50 is > 42 µM (inactive).

`O=C(Cn1sc2ccccc2c1=O)NC12CC3CC(CC(C3)C1)C2`: the concentration at half-maximal activity (AC50) is 20.7 µM. The figure for `O=C(NCCCN1CCOCC1)C1CCC(=O)N1CCc1ccccc1` (centres undefined) is > 42 µM (inactive); for `Cc1nc2nc[nH]n2c(=O)c1NS(=O)(=O)c1ccc([N+](=O)[O-])cc1` it is > 42 µM (inactive); for `COc1ccc(C2=Nn3c(nnc3-c3ccco3)SC2)cc1` it is > 42 µM (inactive). In the case of `Cc1ccc(NC(=O)COC(=O)c2csc3c2CCC(C)C3)cc1S(=O)(=O)N1CCCCC1` (centres undefined), the AC50 was > 42 µM (inactive). The figure for `O=C1NC(=O)C(=Cc2ccc(N3CCOCC3)cc2)C(=O)N1` is > 42 µM (inactive); for `Cc1nc(SCC(=O)O)n[nH]1` it is > 42 µM (inactive). Consider `Cc1ccc(S(=O)(=O)CCC(=O)OCC(=O)N(C)C2CCS(=O)(=O)C2)cc1` (centres undefined), for which the AC50 was > 42 µM (inactive). Then `O=C(NCC(=O)N(c1ccccc1)C(C(=O)NCC1CCCO1)c1ccccc1)c1cccs1` (centres undefined), with > 42 µM (inactive); and `N/C(Cn1cncn1)=N\NC(=O)c1ccc(Cl)cc1Cl`, with > 42 µM (inactive); and `O=[N+]([O-])c1cccc(-c2nc3ccc([N+](=O)[O-])cc3[nH]2)c1`, with > 42 µM (inactive). The figure for `O=c1[nH]c(=O)n(C2CCCO2)cc1Br` (centres undefined) is > 42 µM (inactive); for `CCOc1ccccc1CN1CCN(Cc2ccon2)CC1CCO` (centres undefined) it is > 42 µM (inactive); for `Cc1cc(NC(=O)/C=C/c2ccco2)ccc1NC(=O)c1ccccc1` it is > 42 µM (inactive).

Turning to `Nc1cc(-c2ccc(Cl)cc2)nn1S(=O)(=O)c1ccc(Cl)cc1`, the AC50 is > 42 µM (inactive). The figure for `CN(C)c1ccc(CN(Cc2ccco2)C(=O)c2ccco2)cc1` is > 42 µM (inactive).

`OCCc1c[nH]c2cc(F)ccc12`: the AC50 was > 110 µM (inactive). The figure for `CCC(=O)Nc1ccc(S(=O)(=O)NCc2ccco2)cc1` is > 42 µM (inactive); for `O=C(COc1ccc(F)cc1Cl)N(Cc1nnc(-c2ccccc2Cl)o1)C1CC1` it is > 42 µM (inactive); for `COCCn1c(SCC(=O)NCc2cccs2)nnc1-c1ccc(OC)cc1` it is > 42 µM (inactive).

On to `O=C(CN1CCN(Cc2ccc(Cl)cc2)CC1)N/N=C/c1ccncc1`, for which the AC50 is > 42 µM (inactive). Then `O=C(N/N=C/c1ccccn1)NC12CC3CC(CC(C3)C1)C2`, with > 42 µM (inactive); and `O=C(CSc1nc(-c2ccccc2)nc2ccc(F)cc12)Nc1cccc(C(=O)O)c1`, with > 42 µM (inactive). The figure for `Fc1ccc(-c2n[nH]c(=S)n2CC2CCCO2)cc1` (centres undefined) is > 42 µM (inactive).

Regarding `COc1ccccc1NC(=O)NCCc1c[nH]c2ccccc12`, the AC50 was > 42 µM (inactive). As for `Cc1sc(NC(=O)c2ccc(Br)s2)c(C(N)=O)c1C`, the AC50 was > 42 µM (inactive). For `Cc1cc(C)n2nc(SCC(=O)NC3CCCC(C)C3C)nc2n1` (centres undefined), the AC50 is > 42 µM (inactive). The figure for `Cc1ccc(S(=O)(=O)NCC(=O)OCC(=O)c2ccc(Br)s2)cc1` is > 42 µM (inactive); for `CCC(c1nc2ccccc2c(=O)n1-c1nc2ccccc2s1)N1C(=O)c2ccccc2C1=O` (centres undefined) it is > 42 µM (inactive); for `CCOc1ccc(Cn2c(SCCCCC#N)nc3c2c(=O)n(C)c(=O)n3C)cc1OCC` it is > 42 µM (inactive). The figure for `COCC(C)n1c(SCC(=O)NNC(=O)c2ccccc2)nc2ccccc2c1=O` (centres undefined) is > 42 µM (inactive). Then `Cc1ccc(-c2nc3c(=O)n(-c4ccccc4)c4c(c(=O)n(C)c(=O)n4C)c3o2)cc1`, with > 42 µM (inactive); and `Cn1cnnc1-c1cccc(NS(=O)(=O)c2ccc(N3CCCC3=O)cc2)c1`, with > 42 µM (inactive); and `Cc1ccc(S(=O)(=O)N2CCCC2C(=O)NCCc2ccccc2)cc1` (centres undefined), with > 42 µM (inactive). For the molecule `Cc1ccc(S(=O)(=O)N2CCOCC2)cc1NC(=O)COC(=O)CCC(=O)c1cccs1`, the AC50 is > 42 µM (inactive).

By AC50 is commonly meant the midpoint of the concentration-response curve, whichever way the signal moves.
